Test results published in patent US20100166701A1, “METHOD FOR TREATING RENAL CELL CARCINOMA USING GLYCOGENOLYSIS INHIBITORS” (priority 2008, published 2010).
Entries after “also recorded” stand apart in the source; their conditions may differ. Read-outs that look alike come from different tables or passages of the source.

How the values were obtained:
[1] = test system: prostate cancer cells; details: cited from earlier work
[2] = test system: RCC; details: high dose, cited from earlier work
[3] = test system: human Caki-2 RCC cells; test: Induction of glycogenosis in Caki-2 RCC cells by activators of the hypoxia pathway; assay type: cell-based
Description: To test this hypothesis it was first necessary to establish an in vitro model of glycogenosis in a relevant clear cell renal cell carcinoma (ccRCC) cell type (CAKI-2 cells). It was first necessary to induce levels of glycogenosis similar to those measured in human disease. We obtained human RCC biopsies (FIG. 4 B) and compared glycogen levels with neighboring grossly uninvolved tissue (GU). […] We treated human Caki-2 RCC cells with known activators of hypoxia pathway in 20 mM glucose for 24 h: 100 μM cobalt chloride, 100 μM desferrioxamine (DFO), and hypoxia (pO2=1%) (FIG. 4 A).
We therefore repeated the induction of glycogenosis with DFO after prior treatment with HIF-1α RNAi (FIG. 5).

[4] = test system: pancreatic tumor cells; details: cited from earlier work
[5] = test system: RCC; details: clinical trials; cited from earlier work
[6] = test system: CAKI-2 cells; test: Glycogen mobilization in glucose-starved CAKI-2 cells; assay type: cell-based, human
Excerpt: Caki-2 cells loose glycogen when starved of glucose in the media and not when there was abundant glucose (p<0.05). As proposed in the invention glycogen reserves are responsive to the metabolic status of the carcinoma cell and are mobilized in response to metabolic stress.
We also tested whether glycogen mobilization could be inhibited pharmacologically (FIG. 6B). We therefore treated glucose-starved CAKI-2 cells with two types of glycogenolysis inhibitor: CP-316819 (▪), which inhibits glycogen phosphorylase and NN-DNJ (♦), which inhibits lysosomal glycogen breakdown. […] After 4 h glycogen loss was restricted to 25% and roughly ⅓^rd was still present after 20 h in glucose free media (p<0.05).

[7] = test system: CAKI-2 cells; test: Cell death by propidium iodide inclusion (FACScan) under nutrient deprivation and azide; assay type: cell-based, human
Description: The invention was tested in an in vitro model. CAKI-2 cells were pre-incubated in the presence of 300 μM desferrioximine (DFO, solid line) in RPMI1640 and 10% fetal calf serum to induce the accumulation of glycogen. After 16 hours the media was changed to DMEM with 0 mM glucose and 0 mM pyruvate for 4 hours, to mimic the absence of nutrient as present in the interior of a tumor or resulting from treatment with anti-angiogenic inhibitors, increasing concentrations of sodium azide (0 to 100 mM) to mimic the absence of oxygen, and the presence or absence of 60 μM CP-316819 to specifically target glycogenolysis (CP, closed circles). Cells were then trypsinized, collected, treated with 0.1 mg propidium iodide in KRBH buffer (25 mM HEPES 7.4, 120 mM NaCl, 4.6 mM KCl, 1.9 mM CaCl2, 1 mM MgSO4, and 1.2 mM KH2PO4), and analyzed for cell death by measuring inclusion of propidium iodide on a FACScan instrument ([…]).

[8] = test system: HIF protein; test: Immunoblot of HIF protein levels in Caki-2 cells; assay type: cell-based, human; details: 100 μM, 20 mM glucose, 24 h
Description: To test this hypothesis it was first necessary to establish an in vitro model of glycogenosis in a relevant clear cell renal cell carcinoma (ccRCC) cell type (CAKI-2 cells). It was first necessary to induce levels of glycogenosis similar to those measured in human disease. We obtained human RCC biopsies (FIG. 4 B) and compared glycogen levels with neighboring grossly uninvolved tissue (GU). There was a […] induction of glycogen levels in human RCC (1±1 to 230±40 μg glucose/mg protein, p<0.01). We treated human Caki-2 RCC cells with known activators of hypoxia pathway in 20 mM glucose for 24 h: 100 μM cobalt chloride, 100 μM desferrioxamine (DFO), and hypoxia (pO2=1%) (FIG. 4 A).

[9] = cited from earlier work
[10] = 100 μM, 20 mM glucose, 24 h, Caki-2 cells

## CN(C)C(=O)[C@H](O)[C@H](Cc1ccccc1)NC(=O)c1cc2cc(Cl)ccc2[nH]1 [CP-91149]
[1]
  glycogen content: two-fold increase
  reduction in cell number: 50%

## bevacizumab: humanized monoclonal antibody, VEGF receptor antagonist
[2]; after three years
  survival: no difference in survival
[2]
  response: 30%

## ferric ammonium citrate
[3]; incubated in 150 μM ferric ammonium citrate
  DFO-dependent glycogen accumulation: did not occur

## O=C(N[C@@H](Cc1ccc(F)cc1)C(=O)N1CCC(O)CC1)c1cc2cc(Cl)ccc2[nH]1 [CP-320626]
[4]; concentrations below those required for anti-proliferative and pro-apoptotic effects
  flux into fatty acid synthesis and the pentose phosphate cycle: inhibited
[4]; pancreatic tumor cells
  flux of glucose through the TCA cycle: decreased

## CCN(CC)CCNC(=O)c1c(C)[nH]c(/C=C2\C(=O)Nc3ccc(F)cc32)c1C [sunitinib malate]
[5]
  median increase in survival: 16.4 months
  response: 24% to 40%
  stable disease, additional patients: 27% to 46%

## CP-316819
[6]; after 4 h, glucose-starved CAKI-2 cells
  glycogen loss: 25%
[6]; after 20 h in glucose free media
  glycogen still present (fraction): roughly ⅓
[6]; glucose-starved CAKI-2 cells
  reducing glycogen breakdown (comparison of the two inhibitors): most effective at reducing glycogen breakdown
[7]; 60 μM CP-316819, DFO-pretreated cells, 0 mM glucose, 0 mM pyruvate, 4 hours, sodium azide
  protection of glycogen-loaded cells against cell death: this protection is lost; also recorded: removed that protection

## [Cl][Co][Cl] [cobalt chloride]
[3]; [10]
  induction of glycogenosis to a level equivalent to human RCC biopsies: Only DFO, the iron chelator, was able to induce glycogenosis
[8]
  stabilization of HIF protein levels: only DFO was able to stabilize HIF protein levels

## CC(=O)N(O)CCCCCNC(=O)CCC(=O)N(O)CCCCCNC(=O)CCC(=O)N(O)CCCCCN [DFO, desferrioxamine]
[3]; [10]
  glycogen level (glycogenosis): 320±90 μg glucose/mg protein
[3]; CAKI-2 cells, DFO treatment
  increase of glycogen levels: 9 fold
[8]
  stabilization of HIF protein levels: able to stabilize HIF protein levels
[7]; pre-incubated 300 μM DFO 16 hours, 100 mM azide, 0 mM glucose 4 hours
  resistance to cell death: significantly resistant to cell death

## CCCCCCCCCN1C[C@H](O)[C@@H](O)[C@H](O)[C@H]1CO [NN-DNJ, N-(n-Nonyl)deoxynojirimycin]
[9]; mice
  duration of sustained increases in hepatic glycogen levels: at least 120 days
[9]; mouse, in vivo
  body weight: did not lose body weight
  hypoglycemia: did not suffer hypoglycemia below normal fasting levels
